Source: patent publication US20220289794A1, “SYNTHETIC ANTIMICROBIAL PEPTIDES” (priority 2019, published 2022)
≈ marks a conversion by molar mass, not a printed value. Where two headings read alike, the source gives them in different places.

Legend:
[1] = system: Pseudomonas aeruginosa (PSA, ATCC 27883); test: Synergy checkerboard assay (FIC index); format: cell-based; conditions: Pseudomonas aeruginosa (ATCC 27883), antibiotic alone
[2] = system: Klebsiella pneumoniae (KPC, ATCC BAA-1705); conditions: Klebsiella pneumoniae (ATCC BAA-1705), antibiotic alone; for MIC of antibiotics: Table 26
[3] = system: Escherichia coli (E. Coli, ATCC 25922); conditions: Escherichia coli (ATCC 25922), antibiotic alone
[4] = system: Methicillin-resistant Staphylococcus aureus MRSA (ATCC BAA-1556); test: microbe, parasite or virus in culture; conditions: ATCCBAA1556|MRSA, 24 h
[5] = system: Pseudomonas aeruginosa (PSA, ATCC 27883); test: microbe, parasite or virus in culture; conditions: ATCC27883, 24 h
[6] = system: Klebsiella pneumoniae (KPC, ATCC BAA-1705); test: microbe, parasite or virus in culture; conditions: ATCCBAA1705, 24 h
[7] = system: Escherichia coli (E. Coli, ATCC 25922); test: microbe, parasite or virus in culture; conditions: ATCC25922, 24 h
[8] = system: Klebsiella pneumoniae (KPC, ATCC BAA-1705); test: microbe, parasite or virus in culture; conditions: ATCCBAA1705, 24 h, read-out: MIC of antibiotic
[9] = system: Methicillin-resistant Staphylococcus aureus MRSA (ATCC BAA-1556)
[10] = system: Pseudomonas aeruginosa (PSA, ATCC 27883)
[11] = system: Klebsiella pneumoniae (KPC, ATCC BAA-1705)
[12] = system: Escherichia coli (E. Coli, ATCC 25922)
[13] = system: Klebsiella pneumoniae ATCC 13883; conditions: Klebsiella pneumonia (ATCC 13883)
KPC = conditions: Klebsiella pneumoniae (ATCC BAA-1705)
PSA = conditions: P. aeruginosa ATCC 27883
E. coli = E. coli ATCC 25922
[14] = system: Escherichia coli (ATCC BAA-2452); conditions: Escherichia coli (ATCC BAA-2452)
[15] = system: Acinetobacter baumannii (ATCC BAA-1605); conditions: Acinetobacter baumannii (ATCC BAA-1605)
[16] = system: Pseudomonas aeruginosa (ATCC 10145); conditions: Pseudomonas aeruginosa (ATCC 10145)
[17] = system: Pseudomonas aeruginosa (ATCC BAA-1744); conditions: Pseudomonas aeruginosa (ATCC BAA-1744)
[18] = Table 28, IFX-031, antibiotics alone and PHY-MIX (1:1 w/w)
[19] = Table 29, [R6W4] (IFX-318), antibiotics alone and PHY-MIX (1:1 w/w)
[20] = Table 30, [R5W4K] (IFX-315), antibiotics alone and PHY-MIX (1:1 w/w)
[21] = Table 31, [R5W4] (IFX-301), antibiotics alone and PHY-MIX (1:1 w/w)

Compound: NC[C@H]1O[C@H](O[C@H]2[C@H](O)[C@@H](O[C@H]3O[C@H](CO)[C@@H](O)[C@H](N)[C@H]3O)[C@H](N)C[C@@H]2N)[C@H](O)[C@@H](O)[C@@H]1O [Kanamycin]
- MIC ([1]; ATCC27883, 24 h, Table 25): 256 µg/mL
- MIC of antibiotic [2]: 64 µg/mL
- MIC of antibiotics [2]: 64 µg/mL
- MIC of antibiotic [3]: 32 µg/mL
- MIC of antibiotic ([3]; Table 25): 32 µg/mL
- MIC of antibiotic ([3]; Table 26): 32 µg/mL
- MIC ([4]; read-out: MRSA (ATCC BAA-1556) MIC, Table 28, IFX-031, antibiotics alone and PHY-MIX (1:1 w/w)): > 64 µg/mL
- MIC ([4]; read-out: MRSA (ATCC BAA-1556) MIC, Table 29, [R6W4] (IFX-318), antibiotics alone and PHY-MIX (1:1 w/w)): > 64 µg/mL
- MIC ([4]; read-out: MRSA (ATCC BAA-1556) MIC, Table 30, [R5W4K] (IFX-315), antibiotics alone and PHY-MIX (1:1 w/w)): > 64 µg/mL
- MIC ([4]; read-out: MRSA (ATCC BAA-1556) MIC, Table 31, [R5W4] (IFX-301), antibiotics alone and PHY-MIX (1:1 w/w)): > 64 µg/mL
- MIC ([5]; read-out: Pseudomonas aeruginosa (ATCC 27883) MIC, Table 28, IFX-031, antibiotics alone and PHY-MIX (1:1 w/w)): > 64 µg/mL
- MIC ([5]; read-out: Pseudomonas aeruginosa (ATCC 27883) MIC, Table 29, [R6W4] (IFX-318), antibiotics alone and PHY-MIX (1:1 w/w)): > 64 µg/mL
- MIC ([5]; read-out: Pseudomonas aeruginosa (ATCC 27883) MIC, Table 30, [R5W4K] (IFX-315), antibiotics alone and PHY-MIX (1:1 w/w)): > 64 µg/mL
- MIC ([5]; read-out: Pseudomonas aeruginosa (ATCC 27883) MIC, Table 31, [R5W4] (IFX-301), antibiotics alone and PHY-MIX (1:1 w/w)): > 64 µg/mL
- MIC ([6]; read-out: Klebsiella pneumoniae (ATCC BAA-1705) MIC, Table 28, IFX-031, antibiotics alone and PHY-MIX (1:1 w/w)): 64 µg/mL (≈ 132 µM)
- MIC ([6]; read-out: Klebsiella pneumoniae (ATCC BAA-1705) MIC, Table 29, [R6W4] (IFX-318), antibiotics alone and PHY-MIX (1:1 w/w)): 64 µg/mL (≈ 132 µM)
- MIC ([6]; read-out: Klebsiella pneumoniae (ATCC BAA-1705) MIC, Table 30, [R5W4K] (IFX-315), antibiotics alone and PHY-MIX (1:1 w/w)): 64 µg/mL (≈ 132 µM)
- MIC ([6]; read-out: Klebsiella pneumoniae (ATCC BAA-1705) MIC, Table 31, [R5W4] (IFX-301), antibiotics alone and PHY-MIX (1:1 w/w)): 64 µg/mL (≈ 132 µM)
- MIC ([7]; read-out: Escherichia coli (ATCC 25922) MIC, Table 28, IFX-031, antibiotics alone and PHY-MIX (1:1 w/w)): 32 µg/mL (≈ 66 µM)
- MIC ([7]; read-out: Escherichia coli (ATCC 25922) MIC, Table 29, [R6W4] (IFX-318), antibiotics alone and PHY-MIX (1:1 w/w)): 32 µg/mL (≈ 66 µM)
- MIC ([7]; read-out: Escherichia coli (ATCC 25922) MIC, Table 30, [R5W4K] (IFX-315), antibiotics alone and PHY-MIX (1:1 w/w)): 32 µg/mL (≈ 66 µM)
- MIC ([7]; read-out: Escherichia coli (ATCC 25922) MIC, Table 31, [R5W4] (IFX-301), antibiotics alone and PHY-MIX (1:1 w/w)): 32 µg/mL (≈ 66 µM)
- MIC [8]: 64 µg/mL

Compound: Polymyxin
- MIC of antibiotic ([1]; Table 25): 1 µg/mL
- MIC of antibiotic ([1]; Table 26): 1 µg/mL
- antibiotic MIC ([1]; Table 27): 1 µg/mL
- MRSA (ATCC BAA-1556) MIC [9, 18]: 64 µg/mL
- MRSA (ATCC BAA-1556) MIC [9, 19]: 64 µg/mL
- MRSA (ATCC BAA-1556) MIC [9, 20]: 64 µg/mL
- MRSA (ATCC BAA-1556) MIC [9, 21]: 64 µg/mL
- Pseudomonas aeruginosa (ATCC 27883) MIC [10, 18]: 1 µg/mL
- Pseudomonas aeruginosa (ATCC 27883) MIC [10, 19]: 1 µg/mL
- Pseudomonas aeruginosa (ATCC 27883) MIC [10, 20]: 1 µg/mL
- Pseudomonas aeruginosa (ATCC 27883) MIC [10, 21]: 1 µg/mL
- Klebsiella pneumoniae (ATCC BAA-1705) MIC [11, 18]: 1 µg/mL
- Klebsiella pneumoniae (ATCC BAA-1705) MIC [11, 19]: 1 µg/mL
- Klebsiella pneumoniae (ATCC BAA-1705) MIC [11, 20]: 1 µg/mL
- Klebsiella pneumoniae (ATCC BAA-1705) MIC [11, 21]: 1 µg/mL
- Escherichia coli (ATCC 25922) MIC [12, 18]: 2 µg/mL
- Escherichia coli (ATCC 25922) MIC [12, 19]: 2 µg/mL
- Escherichia coli (ATCC 25922) MIC [12, 20]: 2 µg/mL
- Escherichia coli (ATCC 25922) MIC [12, 21]: 2 µg/mL
- MIC of antibiotic [2]: 1 µg/mL
- MIC of antibiotic ([2]; Table 25): 1 µg/mL
- MIC of antibiotics [2]: 1 µg/mL
- Polymyxin MIC ([2]; Table 27): 0.5 µg/mL
- MIC of antibiotic [3]: 2 µg/mL
- MIC of antibiotic ([3]; Table 25): 2 µg/mL
- MIC of antibiotic ([3]; Table 26): 2 µg/mL
- Polymyxin MIC ([3]; Table 27): 2 µg/mL
- MIC ([13]; Table 35): 1 µg/mL
- MIC ([13]; Table 36): 1 µg/mL
- MIC (KPC; Table 35): 0.5 µg/mL
- MIC (KPC; Table 36): 0.5 µg/mL
- MIC (PSA; Table 35): 1 µg/mL
- MIC (PSA; Table 36): 1 µg/mL
- MIC (E. coli; Table 35): 2 µg/mL
- MIC (E. coli; Table 36): 2 µg/mL
- MIC ([14]; Table 35): 1 µg/mL
- MIC ([14]; Table 36): 1 µg/mL
- MIC ([15]; Table 35): 1 µg/mL
- MIC ([15]; Table 36): 1 µg/mL
- MIC ([16]; Table 35): 2 µg/mL
- MIC ([16]; Table 36): 2 µg/mL
- MIC ([17]; Table 35): 2 µg/mL
- MIC ([17]; Table 36): 2 µg/mL
